From PMC6007841 (Journal of medicinal chemistry, 2018)
Values joined by “and” are separate entries in the source; they are usually repeats but may differ in a detail not shown here. Equal entries are not always repeated. Each block holds one molecule with its values, some of them ahead of it. Bridge positions count the residues as written; N and C are the ends. Ends that are not written are not given here. Peptide text beside a SMILES is read from it.

Columns and labels:
hMC4R [1] = biological target: T1, hMC4R (Homo sapiens, UniProt P32245); test: cAMP AlphaScreen agonist assay, hMC4R; settings: for Agonist efficacy (in words): hMC4R, up to 100 μM, HEK293 cells, cAMP
T1 sequence (P32245 whole entry): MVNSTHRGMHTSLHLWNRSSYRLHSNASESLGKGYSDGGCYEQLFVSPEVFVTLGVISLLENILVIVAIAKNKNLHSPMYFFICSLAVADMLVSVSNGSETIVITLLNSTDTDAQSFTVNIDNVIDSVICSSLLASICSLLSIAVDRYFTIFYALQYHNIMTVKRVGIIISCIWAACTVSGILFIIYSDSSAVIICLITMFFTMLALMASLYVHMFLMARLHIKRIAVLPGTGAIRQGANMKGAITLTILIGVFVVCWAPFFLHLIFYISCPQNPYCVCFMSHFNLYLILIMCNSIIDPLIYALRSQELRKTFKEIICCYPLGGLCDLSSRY

hMC3R = hMC3R (Homo sapiens, UniProt P41968); test: cAMP AlphaScreen agonist assay, hMC3R; settings: for Agonist efficacy (in words): hMC3R, up to 100 μM, HEK293 cells, cAMP
Chain of hMC3R (P41968 whole entry): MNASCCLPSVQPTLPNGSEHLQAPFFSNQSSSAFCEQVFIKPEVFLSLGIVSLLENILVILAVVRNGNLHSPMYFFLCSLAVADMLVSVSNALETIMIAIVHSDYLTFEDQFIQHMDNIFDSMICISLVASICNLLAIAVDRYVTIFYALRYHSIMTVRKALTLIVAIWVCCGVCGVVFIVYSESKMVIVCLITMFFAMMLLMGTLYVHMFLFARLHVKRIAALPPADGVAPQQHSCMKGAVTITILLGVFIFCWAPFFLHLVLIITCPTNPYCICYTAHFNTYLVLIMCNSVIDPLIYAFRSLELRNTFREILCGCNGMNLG

hMC4R [2] = biological target: T1, hMC4R; test: Competitive displacement binding, [125I]-NDP-MSH, hMC4R; settings: HEK293 cells
hMC1R [3] = biological target: T2, hMC1R (Homo sapiens, UniProt Q01726); settings: human MC1R; HEK293 cells; cited from earlier work
T2 sequence (Q01726 whole entry): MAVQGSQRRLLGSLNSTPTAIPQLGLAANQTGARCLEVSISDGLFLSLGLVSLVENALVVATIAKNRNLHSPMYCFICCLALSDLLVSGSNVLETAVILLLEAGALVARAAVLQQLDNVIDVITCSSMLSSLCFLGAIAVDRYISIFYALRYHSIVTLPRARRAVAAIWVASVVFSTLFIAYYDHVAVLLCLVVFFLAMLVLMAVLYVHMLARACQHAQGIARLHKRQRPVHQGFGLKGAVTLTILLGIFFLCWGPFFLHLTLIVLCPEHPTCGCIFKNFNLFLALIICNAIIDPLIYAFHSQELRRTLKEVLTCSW

hMC5R = hMC5R (Homo sapiens, UniProt P33032); test: cAMP AlphaScreen agonist assay, hMC5R; settings: for Agonist efficacy (in words): hMC5R, up to 100 μM, HEK293 cells, cAMP
Chain of hMC5R (P33032 whole entry): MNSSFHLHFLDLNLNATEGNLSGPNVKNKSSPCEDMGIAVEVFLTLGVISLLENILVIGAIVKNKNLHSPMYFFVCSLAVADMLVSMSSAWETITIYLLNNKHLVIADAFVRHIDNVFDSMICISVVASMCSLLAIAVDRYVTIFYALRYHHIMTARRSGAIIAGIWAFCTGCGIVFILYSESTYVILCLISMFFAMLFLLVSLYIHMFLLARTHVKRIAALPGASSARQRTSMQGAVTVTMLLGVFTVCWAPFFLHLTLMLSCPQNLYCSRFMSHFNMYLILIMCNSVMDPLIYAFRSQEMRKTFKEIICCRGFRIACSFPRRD

hMC1R [4] = biological target: T2, hMC1R; test: cAMP AlphaScreen agonist assay, hMC1R; settings: for Agonist efficacy (in words): up to 100 μM, HEK293 cells, cAMP
melanocortin receptors = test: cAMP agonist pharmacology at the melanocortin receptors; type: cell-based; settings: cAMP based
mMC1R = mMC1R (Mus musculus, UniProt Q01727); test: cAMP AlphaScreen agonist assay, mMC1R; settings: for Agonist efficacy (in words): mMC1R, up to 100 μM, HEK293 cells, cAMP
Chain of mMC1R (Q01727 whole entry): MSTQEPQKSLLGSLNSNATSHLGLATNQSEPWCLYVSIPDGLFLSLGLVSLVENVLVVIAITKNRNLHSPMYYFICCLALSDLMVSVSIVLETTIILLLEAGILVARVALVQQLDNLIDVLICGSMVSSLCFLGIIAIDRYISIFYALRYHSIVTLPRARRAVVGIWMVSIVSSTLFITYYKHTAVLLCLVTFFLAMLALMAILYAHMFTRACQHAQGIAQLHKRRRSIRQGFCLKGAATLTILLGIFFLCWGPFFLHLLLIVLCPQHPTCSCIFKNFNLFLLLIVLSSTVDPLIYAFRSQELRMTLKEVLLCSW

hMC1R [5] = biological target: T2, hMC1R; test: Competitive displacement binding, [125I]-NDP-MSH, hMC1R; settings: HEK293 cells
mMC3R = mMC3R (Mus musculus, UniProt P33033); test: cAMP AlphaScreen agonist assay, mMC3R; settings: HEK293 cells; for Agonist efficacy (in words): up to 100 μM
Chain of mMC3R (P33033 whole entry): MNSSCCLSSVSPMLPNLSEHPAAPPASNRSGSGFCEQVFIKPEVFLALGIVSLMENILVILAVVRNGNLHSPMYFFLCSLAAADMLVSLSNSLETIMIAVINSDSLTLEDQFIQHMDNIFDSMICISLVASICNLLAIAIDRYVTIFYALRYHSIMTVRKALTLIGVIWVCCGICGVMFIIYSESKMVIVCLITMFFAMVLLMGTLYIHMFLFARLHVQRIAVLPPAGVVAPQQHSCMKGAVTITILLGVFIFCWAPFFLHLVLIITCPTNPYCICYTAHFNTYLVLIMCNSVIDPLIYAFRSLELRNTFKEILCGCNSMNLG

mice = test: Fasting feeding paradigm after central administration in cannulated male mice; type: in vivo, mouse; settings: 100 μg at start of 22 h fast, vs saline
mMC5R = mMC5R (Mus musculus, UniProt P41149); test: cAMP AlphaScreen agonist assay, mMC5R; settings: for Agonist efficacy (in words): mMC5R, up to 100 μM, HEK293 cells, cAMP
Chain of mMC5R (P41149 whole entry): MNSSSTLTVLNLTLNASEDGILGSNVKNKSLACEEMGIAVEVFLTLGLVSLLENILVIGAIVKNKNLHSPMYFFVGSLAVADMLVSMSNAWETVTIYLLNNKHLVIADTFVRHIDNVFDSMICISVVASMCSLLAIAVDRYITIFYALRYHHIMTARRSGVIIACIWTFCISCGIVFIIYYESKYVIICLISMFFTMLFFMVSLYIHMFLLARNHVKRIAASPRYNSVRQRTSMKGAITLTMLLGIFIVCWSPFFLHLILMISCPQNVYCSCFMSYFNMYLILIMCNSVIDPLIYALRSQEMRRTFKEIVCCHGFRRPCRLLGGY

mMC4R [6] = biological target: T3, mMC4R (Mus musculus, UniProt P56450); test: Competitive displacement binding, [125I]-NDP-MSH, mMC4R; settings: HEK293 cells
T3 sequence (P56450 whole entry): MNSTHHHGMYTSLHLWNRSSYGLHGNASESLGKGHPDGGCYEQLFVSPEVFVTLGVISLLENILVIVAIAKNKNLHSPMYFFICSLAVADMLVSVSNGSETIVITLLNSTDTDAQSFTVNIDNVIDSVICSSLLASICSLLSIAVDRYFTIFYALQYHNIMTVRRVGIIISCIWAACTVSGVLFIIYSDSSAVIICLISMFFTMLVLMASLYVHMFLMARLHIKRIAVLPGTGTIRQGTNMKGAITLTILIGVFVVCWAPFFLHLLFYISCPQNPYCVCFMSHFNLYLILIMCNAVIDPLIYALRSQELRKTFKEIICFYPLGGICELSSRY

mMC4R [7] = biological target: T3, mMC4R; test: cAMP AlphaScreen agonist assay, mMC4R
[8] = HEK293, read-out: Maximal stimulatory response at 100 μM

Molecule: CC[C@H](C)[C@H](NC(=O)[C@H](CCCCN)NC(=O)[C@@H](NC(=O)[C@H](Cc1ccccc1)NC(=O)[C@@H](NC(=O)[C@@H]1CCCN1C(=O)[C@H](CS)NC(=O)[C@H](C)NC(=O)[C@H](CO)NC(=O)[C@H](Cc1ccc(O)cc1)NC(=O)[C@H](CC(C)C)NC(=O)[C@H](CS)NC(=O)[C@H](CCC(N)=O)NC(=O)CNC(=O)CNC(=O)[C@H](CO)NC(=O)[C@H](CO)NC(=O)[C@@H](NC(=O)[C@H](CS)NC(=O)[C@H](CC(N)=O)NC(=O)[C@H](Cc1ccc(O)cc1)NC(=O)[C@H](Cc1c[nH]cn1)NC(=O)[C@@H](N)CC(=O)O)C(C)C)[C@@H](C)CC)[C@@H](C)O)C(=O)N[C@@H](CCC(N)=O)C(=O)NCC(=O)N[C@H](C(=O)N[C@@H](CS)C(=O)N[C@@H](Cc1ccc(O)cc1)C(=O)N[C@@H](CCCNC(=N)N)C(=O)NCC(=O)N[C@@H](CCCCN)C(=O)N[C@@H](C)C(=O)N[C@@H](CCCCN)C(=O)N[C@@H](CS)C(=O)N[C@@H](CS)C(=O)N[C@@H](CCCCN)C(=O)O)[C@@H](C)O [hBD1red] (H-DHYNCVSSGGQCLYSACPIFTKIQGTCYRGKAKCCK-OH; N-terminus and C-terminus assumed)
- Agonist efficacy (in words) (hMC4R [1]): partial agonist stimulation
- Agonist activity at the melanocortin receptors (in words) (melanocortin receptors): no activity at the remaining receptor subtypes
- Agonist efficacy (in words) (hMC1R [4]; hMC1R): partial agonist stimulation

Molecule: CC(C)C[C@H](NC(=O)[C@H](CS)NC(=O)[C@H](Cc1ccccc1)NC(=O)CNC(=O)CNC(=O)[C@H](Cc1c[nH]cn1)NC(=O)[C@H](CCC(N)=O)NC(=O)[C@H](CC(C)C)NC(=O)[C@H](CS)NC(=O)[C@H](CCCCN)NC(=O)[C@H](Cc1ccc(O)cc1)NC(=O)[C@H](CCC(N)=O)NC(=O)[C@@H](N)CC(=O)O)C(=O)N[C@@H](CCCNC(=N)N)C(=O)N[C@@H](CO)C(=O)N[C@@H](CO)C(=O)N[C@@H](CS)C(=O)N1CCC[C@H]1C(=O)N[C@@H](CO)C(=O)N[C@@H](CC(N)=O)C(=O)N[C@H](C(=O)N[C@@H](CCCCN)C(=O)N[C@@H](CC(C)C)C(=O)N[C@@H](CCC(N)=O)C(=O)NCC(=O)N[C@H](C(=O)N[C@@H](CS)C(=O)N[C@@H](CCCCN)C(=O)N1CCC[C@H]1C(=O)N[C@@H](CC(=O)O)C(=O)N[C@@H](CCCCN)C(=O)N1CCC[C@H]1C(=O)N[C@@H](CC(N)=O)C(=O)N[C@@H](CS)C(=O)N[C@@H](CS)C(=O)N[C@@H](CCCCN)C(=O)N[C@@H](CO)C(=O)O)[C@@H](C)O)[C@@H](C)O [mBD1red] (H-DQYKCLQHGGFCLRSSCPSNTKLQGTCKPDKPNCCKS-OH; N-terminus and C-terminus assumed)
- Agonist efficacy (in words) (mMC4R [7]; mMC4R, up to 100 μM, HEK293 cells, cAMP): did not possess agonist activity
- Agonist efficacy (in words) (hMC3R): unable to stimulate
- Agonist efficacy (in words) (mMC3R): did not possess agonist activity
- Agonist efficacy (in words) (hMC5R): unable to stimulate
- Lower agonist potency compared to the cyclic mBD1 (hMC1R [4]; hMC1R, EC50 ratio mBD1red vs mBD1): 3 fold
- Agonist efficacy (in words) (hMC1R [4]; hMC1R): full agonist

Molecule: FLPKTLRKFFCRIRGGRCAVLNCLGKEEQIGRCSNSGRKCCRKKK (cysteines drawn unpaired) [mBD3*red]
- Emax at 100 µM (hMC4R [1]; [8]): 50%
- Emax at 100 µM (mMC1R; [8]): 40%
- Emax at 100 µM (mMC4R [7]; [8]): 40%
- EC50 (hMC3R): > 100 µM
- Maximal stimulatory response at 100 μM (mMC3R; 100 μM, relative to maximal NDP-MSH signal): 35% @ 100 μM
- Emax at 100 µM (hMC5R; [8]): 40%
- Emax at 100 µM (mMC5R; [8]): 35%
- Emax at 100 µM (hMC1R [4]; [8]): 45%

Molecule: FLPKTLRKFFCRIRGGRCAVLNCLGKEEQIGRCSNSGRKCCRKKK (disulfide 11-40, 18-33, 23-41) [mBD3*]
- EC50 (hMC3R): > 100 µM

Molecule: GIINTLQKYYCRVRGGRCAVLSCLPKEEQIGKCSTRGRKCCRRKK (cysteines drawn unpaired) [hBD3red]
- EC50 (mMC1R): > 100 µM
- Agonist efficacy (in words) (mMC1R): unable to stimulate
- EC50 (hMC3R): > 100 µM
- Agonist efficacy (in words) (hMC3R): unable to stimulate
- EC50 (mMC5R): > 100 µM
- Agonist efficacy (in words) (mMC5R): unable to stimulate

Now from value to molecule, other results behind:

- Agonist efficacy (in words) (hMC4R [1]): Full agonist efficacy
- Agonist efficacy (in words) (hMC3R): no activity
- Agonist efficacy (in words) (hMC5R): no activity
- Agonist efficacy (in words) (hMC1R [4]; hMC1R): Full agonist efficacy
Molecule: CC[C@H](C)[C@@H]1NC(=O)[C@H](CCCCN)NC(=O)[C@H]([C@@H](C)O)NC(=O)[C@H](Cc2ccccc2)NC(=O)[C@H]([C@@H](C)CC)NC(=O)[C@@H]2CCCN2C(=O)[C@@H]2CSSC[C@@H](C(=O)N[C@@H](CCCCN)C(=O)O)NC(=O)[C@@H]3CSSC[C@H](NC(=O)[C@H](CC(N)=O)NC(=O)[C@H](Cc4ccc(O)cc4)NC(=O)[C@H](Cc4c[nH]cn4)NC(=O)[C@@H](N)CC(=O)O)C(=O)N[C@@H](C(C)C)C(=O)N[C@@H](CO)C(=O)N[C@@H](CO)C(=O)NCC(=O)NCC(=O)N[C@@H](CCC(N)=O)C(=O)N[C@@H](CSSC[C@H](NC(=O)[C@H]([C@@H](C)O)NC(=O)CNC(=O)[C@H](CCC(N)=O)NC1=O)C(=O)N[C@@H](Cc1ccc(O)cc1)C(=O)N[C@@H](CCCNC(=N)N)C(=O)NCC(=O)N[C@@H](CCCCN)C(=O)N[C@@H](C)C(=O)N[C@@H](CCCCN)C(=O)N3)C(=O)N[C@@H](CC(C)C)C(=O)N[C@@H](Cc1ccc(O)cc1)C(=O)N[C@@H](CO)C(=O)N[C@@H](C)C(=O)N2 [hBD1] (H-DHYNCVSSGGQCLYSACPIFTKIQGTCYRGKAKCCK-OH; disulfide 5-34, 12-27, 17-35; N-terminus and C-terminus assumed)
- Displacement of radiolabeled NDP-MSH (in words) (hMC4R [2]): not sufficient displacement of the radiolabel to generate an IC50 values
- Binding affinity (hMC1R [3]): 30 nM and 30.0 nM

- Displacement of radiolabeled NDP-MSH (in words) (hMC1R [5]): unable to displace
- Displacement of radiolabeled NDP-MSH (in words) (hMC4R [2]): unable to displace
- Agonist efficacy (in words) (hMC5R): no activity
- Displacement of radiolabeled NDP-MSH (in words) (mMC4R [6]): unable to displace
Molecule: CC(C)C[C@@H]1NC(=O)[C@@H]2CSSC[C@@H]3NC(=O)[C@H]([C@@H](C)O)NC(=O)CNC(=O)[C@H](CCC(N)=O)NC(=O)[C@H](CC(C)C)NC(=O)[C@H](CCCCN)NC(=O)[C@H]([C@@H](C)O)NC(=O)[C@H](CC(N)=O)NC(=O)[C@H](CO)NC(=O)[C@@H]4CCCN4C(=O)[C@H](CSSC[C@@H](C(=O)N[C@@H](CCCCN)C(=O)N[C@@H](CO)C(=O)O)NC(=O)[C@H](CSSC[C@H](NC(=O)[C@H](CCCCN)NC(=O)[C@H](Cc4ccc(O)cc4)NC(=O)[C@H](CCC(N)=O)NC(=O)[C@@H](N)CC(=O)O)C(=O)N[C@@H](CC(C)C)C(=O)N[C@@H](CCC(N)=O)C(=O)N[C@@H](Cc4c[nH]cn4)C(=O)NCC(=O)NCC(=O)N[C@@H](Cc4ccccc4)C(=O)N2)NC(=O)[C@H](CC(N)=O)NC(=O)[C@@H]2CCCN2C(=O)[C@H](CCCCN)NC(=O)[C@H](CC(=O)O)NC(=O)[C@@H]2CCCN2C(=O)[C@H](CCCCN)NC3=O)NC(=O)[C@H](CO)NC(=O)[C@H](CO)NC(=O)[C@H](CCCNC(=N)N)NC1=O [mBD1] (H-DQYKCLQHGGFCLRSSCPSNTKLQGTCKPDKPNCCKS-OH; disulfide 5-34, 12-27, 17-35; N-terminus and C-terminus assumed)
- Agonist efficacy (in words) (hMC4R [1]): full agonist efficacy with micromolar potency
- Agonist efficacy (in words) (mMC1R): full agonist efficacy with micromolar potency
- Agonist efficacy (in words) (hMC3R): full agonist efficacy with micromolar potency
- Agonist efficacy (in words) (mMC3R): full agonist efficacy with micromolar potency
- Body weight, specific time points (mice): no significance was observed at specific time points
- Cumulative food intake, follow-up analysis at specific time points (mice): follow-up analysis did not result in significance at a specific time point
- Agonist efficacy (in words) (mMC5R): full agonist efficacy with micromolar potency
- Agonist efficacy (in words) (hMC1R [4]; hMC1R): full agonist efficacy with micromolar potency
